Activity calls are given as the source filed them.
Key:
[1] = molecular target: T1, Tyrosine-protein phosphatase non-receptor type 7 (Homo sapiens, UniProt P35236); experiment: SAR analysis of chemical inhibitors of HePTP using a Fluorescent assay - Set 2. [Related pubchem assays (depositor defined):AID1059, AID1077, AID1661, AID2085, AID521]; assay type: functional
T1 sequence (P35236 whole entry): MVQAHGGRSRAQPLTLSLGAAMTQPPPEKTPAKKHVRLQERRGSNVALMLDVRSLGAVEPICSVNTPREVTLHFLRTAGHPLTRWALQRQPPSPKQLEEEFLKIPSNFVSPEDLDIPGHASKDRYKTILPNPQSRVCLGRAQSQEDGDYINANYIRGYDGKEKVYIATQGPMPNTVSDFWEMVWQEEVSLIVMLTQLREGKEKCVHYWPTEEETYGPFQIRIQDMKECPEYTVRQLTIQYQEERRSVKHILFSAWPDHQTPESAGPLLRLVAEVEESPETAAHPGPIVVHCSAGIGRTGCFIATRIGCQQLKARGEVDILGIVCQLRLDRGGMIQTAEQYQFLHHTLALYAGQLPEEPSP

[2] = molecular target: Alkaline phosphatase, placental type (Homo sapiens, UniProt P05187); experiment: PLAP enzyme inhibitors, confirmation, biochemical, luminescence (AID 1512); assay type: functional
Alkaline phosphatase, placental type, sequence (P05187 whole entry): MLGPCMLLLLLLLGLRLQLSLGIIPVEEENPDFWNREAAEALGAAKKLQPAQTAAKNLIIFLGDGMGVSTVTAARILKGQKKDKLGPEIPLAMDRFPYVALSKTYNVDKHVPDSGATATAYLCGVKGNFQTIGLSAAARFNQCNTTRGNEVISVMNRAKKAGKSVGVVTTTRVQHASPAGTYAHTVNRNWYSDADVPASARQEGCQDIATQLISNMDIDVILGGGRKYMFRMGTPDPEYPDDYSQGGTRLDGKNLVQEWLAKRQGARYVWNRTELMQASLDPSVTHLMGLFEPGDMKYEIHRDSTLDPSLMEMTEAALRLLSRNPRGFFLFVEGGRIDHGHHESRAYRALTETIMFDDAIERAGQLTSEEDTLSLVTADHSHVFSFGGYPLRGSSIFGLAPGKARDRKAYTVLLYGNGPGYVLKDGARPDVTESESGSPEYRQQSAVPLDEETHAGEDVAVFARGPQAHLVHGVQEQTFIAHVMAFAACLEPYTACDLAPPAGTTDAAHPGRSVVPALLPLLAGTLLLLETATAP

[3] = molecular target: Dual specificity protein phosphatase 3 (Homo sapiens, UniProt P51452); experiment: SAR VHR1 Fluorescent Assay for In Vitro dose response studies Set 2. [Related pubchem assays (depositor defined):AID1654, AID1661, AID1878]; assay type: functional
Dual specificity protein phosphatase 3, sequence (P51452 whole entry): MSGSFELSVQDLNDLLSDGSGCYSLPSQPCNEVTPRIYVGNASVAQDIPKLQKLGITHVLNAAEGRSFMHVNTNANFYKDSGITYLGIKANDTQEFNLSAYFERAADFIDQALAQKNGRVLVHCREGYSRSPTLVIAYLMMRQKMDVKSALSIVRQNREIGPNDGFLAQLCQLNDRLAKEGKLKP

[4] = molecular target: Intestinal-type alkaline phosphatase (Homo sapiens, UniProt P09923); experiment: activation of human intestinal alkaline phosphatase – biochemical, dose response (AID 488873); assay type: functional
Intestinal-type alkaline phosphatase (Homo sapiens, UniProt P09923), sequence (P09923 whole entry): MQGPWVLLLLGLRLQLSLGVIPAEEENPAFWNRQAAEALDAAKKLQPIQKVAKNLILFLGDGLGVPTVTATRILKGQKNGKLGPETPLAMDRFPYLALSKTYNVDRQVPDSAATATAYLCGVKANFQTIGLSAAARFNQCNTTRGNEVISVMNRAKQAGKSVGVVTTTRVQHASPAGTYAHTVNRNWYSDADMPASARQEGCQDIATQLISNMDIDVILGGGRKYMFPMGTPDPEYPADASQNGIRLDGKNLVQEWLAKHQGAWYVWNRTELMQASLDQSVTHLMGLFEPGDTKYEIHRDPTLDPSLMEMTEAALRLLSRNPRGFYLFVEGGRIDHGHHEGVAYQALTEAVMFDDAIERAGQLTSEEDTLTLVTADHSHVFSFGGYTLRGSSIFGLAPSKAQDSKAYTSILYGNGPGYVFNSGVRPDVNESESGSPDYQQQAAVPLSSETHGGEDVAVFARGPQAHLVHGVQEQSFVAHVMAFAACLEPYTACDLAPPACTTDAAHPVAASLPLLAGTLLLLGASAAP

[5] = molecular target: T2, Alkaline phosphatase, tissue-nonspecific isozyme (Homo sapiens, UniProt P05186); experiment: TNAP enzyme inhibition by screening hits, dose response, selectivity assay for mouse IAP inhibitor project, biochemical, human TNAP, uHTS hits (AID 488906); assay type: functional
T2 sequence (P05186 whole entry): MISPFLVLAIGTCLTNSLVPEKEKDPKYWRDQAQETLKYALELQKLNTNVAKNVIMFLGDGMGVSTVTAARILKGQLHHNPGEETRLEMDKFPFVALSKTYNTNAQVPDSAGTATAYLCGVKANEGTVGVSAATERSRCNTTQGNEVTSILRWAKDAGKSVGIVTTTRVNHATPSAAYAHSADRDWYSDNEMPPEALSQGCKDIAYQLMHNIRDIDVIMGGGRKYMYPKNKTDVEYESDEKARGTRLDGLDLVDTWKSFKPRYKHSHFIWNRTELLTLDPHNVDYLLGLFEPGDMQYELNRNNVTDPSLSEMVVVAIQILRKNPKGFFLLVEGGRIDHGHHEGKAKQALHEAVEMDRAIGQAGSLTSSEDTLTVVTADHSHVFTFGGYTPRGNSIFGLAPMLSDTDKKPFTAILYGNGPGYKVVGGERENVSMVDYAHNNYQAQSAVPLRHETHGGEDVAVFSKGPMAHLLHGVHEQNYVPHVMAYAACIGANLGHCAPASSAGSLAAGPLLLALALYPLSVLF

[6] = molecular target: Intestinal-type alkaline phosphatase (Mus musculus, UniProt P24822); experiment: PubChem AID 488785; assay type: functional
Intestinal-type alkaline phosphatase (Mus musculus, UniProt P24822), sequence (P24822 whole entry): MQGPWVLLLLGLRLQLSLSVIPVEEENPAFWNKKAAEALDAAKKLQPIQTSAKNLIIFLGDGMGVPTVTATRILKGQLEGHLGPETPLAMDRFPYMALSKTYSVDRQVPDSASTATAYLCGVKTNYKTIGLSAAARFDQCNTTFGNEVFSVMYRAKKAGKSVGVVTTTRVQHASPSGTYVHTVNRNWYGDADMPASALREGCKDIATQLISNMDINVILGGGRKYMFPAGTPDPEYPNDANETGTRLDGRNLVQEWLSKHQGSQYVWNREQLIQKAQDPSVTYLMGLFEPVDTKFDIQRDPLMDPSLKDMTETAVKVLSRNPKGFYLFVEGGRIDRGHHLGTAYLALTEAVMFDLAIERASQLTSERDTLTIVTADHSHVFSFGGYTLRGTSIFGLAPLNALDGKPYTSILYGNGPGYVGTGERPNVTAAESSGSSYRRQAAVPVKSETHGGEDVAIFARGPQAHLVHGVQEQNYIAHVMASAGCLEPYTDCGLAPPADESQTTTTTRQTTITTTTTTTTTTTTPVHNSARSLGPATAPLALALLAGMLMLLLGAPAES

[7] = molecular target: T3, Short transient receptor potential channel 4 (Mus musculus, UniProt Q9QUQ5); experiment: TRPC4 positive allosteric modulators, dose response, cell-based, HEK293 TRPC4/mu-opioid, Fluo-4 calcium, EC20 DAMGO (AID 434941); assay type: functional
T3 sequence (Q9QUQ5 whole entry): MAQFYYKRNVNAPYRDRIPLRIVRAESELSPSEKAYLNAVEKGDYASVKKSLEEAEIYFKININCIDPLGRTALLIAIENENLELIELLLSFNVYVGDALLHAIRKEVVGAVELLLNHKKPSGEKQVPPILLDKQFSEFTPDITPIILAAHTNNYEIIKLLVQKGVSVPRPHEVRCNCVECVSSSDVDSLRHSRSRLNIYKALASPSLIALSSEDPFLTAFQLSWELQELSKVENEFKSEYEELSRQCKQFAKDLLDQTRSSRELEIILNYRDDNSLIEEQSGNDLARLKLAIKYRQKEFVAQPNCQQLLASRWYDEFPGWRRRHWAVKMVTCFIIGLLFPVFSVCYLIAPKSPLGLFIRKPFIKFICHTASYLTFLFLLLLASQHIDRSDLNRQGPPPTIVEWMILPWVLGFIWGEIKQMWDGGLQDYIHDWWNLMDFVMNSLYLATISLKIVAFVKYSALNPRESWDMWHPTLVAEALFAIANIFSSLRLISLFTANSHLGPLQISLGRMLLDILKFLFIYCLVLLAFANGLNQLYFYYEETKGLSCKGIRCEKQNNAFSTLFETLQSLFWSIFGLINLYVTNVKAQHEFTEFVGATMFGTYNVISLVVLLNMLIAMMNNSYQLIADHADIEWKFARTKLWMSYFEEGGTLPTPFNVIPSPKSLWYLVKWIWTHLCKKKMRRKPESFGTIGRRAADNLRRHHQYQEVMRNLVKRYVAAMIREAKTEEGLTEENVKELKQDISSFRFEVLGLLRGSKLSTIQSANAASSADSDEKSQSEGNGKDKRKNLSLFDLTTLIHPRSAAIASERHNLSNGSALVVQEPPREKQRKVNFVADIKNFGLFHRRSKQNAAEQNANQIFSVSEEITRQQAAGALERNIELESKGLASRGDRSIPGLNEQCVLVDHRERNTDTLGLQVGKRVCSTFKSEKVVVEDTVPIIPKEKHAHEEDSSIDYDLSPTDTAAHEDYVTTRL

[8] = molecular target: T4, Polyadenylate-binding protein 1 (Homo sapiens, UniProt P11940); experiment: PABP1 MLLE–PAM2 binding inhibitor potency, dose response, biochemical, fluorescence polarization, FITC-PAM2 peptide (AID 602259); assay type: functional; settings: read-out: IC50_Mean
T4 sequence (P11940 whole entry): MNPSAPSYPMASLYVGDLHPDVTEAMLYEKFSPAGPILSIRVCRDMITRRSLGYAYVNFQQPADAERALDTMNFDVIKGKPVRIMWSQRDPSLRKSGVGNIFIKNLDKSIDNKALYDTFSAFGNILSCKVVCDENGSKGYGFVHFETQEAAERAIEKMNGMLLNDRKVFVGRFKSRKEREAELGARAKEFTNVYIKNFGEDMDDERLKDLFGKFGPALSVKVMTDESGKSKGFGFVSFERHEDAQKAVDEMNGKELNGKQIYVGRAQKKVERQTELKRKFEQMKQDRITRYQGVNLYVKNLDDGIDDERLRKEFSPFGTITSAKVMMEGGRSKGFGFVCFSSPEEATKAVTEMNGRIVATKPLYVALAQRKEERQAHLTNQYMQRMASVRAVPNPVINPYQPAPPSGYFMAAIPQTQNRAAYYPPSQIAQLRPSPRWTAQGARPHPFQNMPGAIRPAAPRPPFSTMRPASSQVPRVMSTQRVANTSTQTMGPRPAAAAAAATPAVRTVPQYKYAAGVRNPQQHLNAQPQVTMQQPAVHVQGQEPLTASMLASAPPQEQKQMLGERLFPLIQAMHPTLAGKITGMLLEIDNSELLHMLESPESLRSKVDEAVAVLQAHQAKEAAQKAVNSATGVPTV

[9] = molecular target: T4, Polyadenylate-binding protein 1; experiment: PABP1 MLLE–PAM2 interaction inhibitors, dose response, miRNA deadenylation inhibitor project, biochemical, fluorescence polarization, Cy5-PAM2 peptide, secondary (AID 602260); assay type: functional; settings: read-out: IC50_Mean
[10] = molecular target: DNA dC->dU-editing enzyme APOBEC-3G (Homo sapiens, UniProt Q9HC16); experiment: Dose Response confirmation of small molecule APOBEC3G DNA Deaminase Inhibitors via a fluorescence-based single-stranded DNA deaminase assay. [Related pubchem assays (depositor defined):AID493012, AID493028]; assay type: functional
DNA dC->dU-editing enzyme APOBEC-3G, sequence (Q9HC16 whole entry): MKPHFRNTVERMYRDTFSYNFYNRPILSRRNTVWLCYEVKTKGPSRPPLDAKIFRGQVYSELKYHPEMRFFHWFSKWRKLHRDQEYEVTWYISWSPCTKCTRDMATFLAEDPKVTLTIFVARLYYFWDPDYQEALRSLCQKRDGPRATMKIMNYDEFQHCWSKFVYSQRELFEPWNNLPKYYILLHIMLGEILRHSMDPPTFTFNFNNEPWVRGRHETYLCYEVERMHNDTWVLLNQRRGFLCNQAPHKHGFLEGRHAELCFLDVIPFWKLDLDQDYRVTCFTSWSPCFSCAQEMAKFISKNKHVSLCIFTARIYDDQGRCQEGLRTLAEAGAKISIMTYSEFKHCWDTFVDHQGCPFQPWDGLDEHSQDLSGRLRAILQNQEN

[11] = molecular target: T5, Mannose-6-phosphate isomerase (Homo sapiens, UniProt P34949); experiment: PMI enzyme inhibitors, confirmation, biochemical, fluorescence intensity (AID 1535)
T5 sequence (P34949 whole entry): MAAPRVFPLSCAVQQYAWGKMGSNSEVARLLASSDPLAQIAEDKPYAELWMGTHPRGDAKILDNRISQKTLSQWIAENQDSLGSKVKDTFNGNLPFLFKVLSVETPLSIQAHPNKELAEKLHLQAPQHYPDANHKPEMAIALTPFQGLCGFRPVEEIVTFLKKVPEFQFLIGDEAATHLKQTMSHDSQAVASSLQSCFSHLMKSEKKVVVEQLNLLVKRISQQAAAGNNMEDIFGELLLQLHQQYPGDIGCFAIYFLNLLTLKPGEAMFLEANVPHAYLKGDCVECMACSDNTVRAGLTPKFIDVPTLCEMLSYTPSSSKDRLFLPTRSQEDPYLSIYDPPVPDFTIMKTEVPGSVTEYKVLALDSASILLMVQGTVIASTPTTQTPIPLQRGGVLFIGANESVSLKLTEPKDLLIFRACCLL

[12] = Fluorescence-based cell-based high throughput dose response assay for inhibitors of the interaction of nucleotide-binding oligomerization domain containing 2 (NOD2) and the receptor-interacting serine-threonine kinase 2 (RIPK2).; assay type: functional; settings: Homo sapiens
Phosphomannomutase 2 = molecular target: T6, Phosphomannomutase 2 (Homo sapiens, UniProt O15305); experiment: Counter screen SAR assay for PMM2 inhibitors via a fluorescence intensity assay. [Related pubchem assays (depositor defined):AID1545, AID1574]
T6 sequence (O15305 whole entry): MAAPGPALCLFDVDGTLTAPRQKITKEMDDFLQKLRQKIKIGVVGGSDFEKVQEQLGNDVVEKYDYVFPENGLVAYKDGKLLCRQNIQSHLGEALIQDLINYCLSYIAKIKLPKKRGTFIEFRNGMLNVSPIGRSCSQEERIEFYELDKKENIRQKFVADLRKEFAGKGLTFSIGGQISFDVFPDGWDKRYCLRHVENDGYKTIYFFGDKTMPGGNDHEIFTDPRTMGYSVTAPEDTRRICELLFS

[13] = HeLa cell cytotoxicity, dose response, cytotoxicity control for MgcRacGAP inhibitor project (AID 624300); assay type: functional
[14] = molecular target: T7, Rac GTPase-activating protein 1 (Homo sapiens, UniProt Q9H0H5); experiment: MgcRacGAP GTPase-activating activity inhibitors, confirmation, biochemical, ADP Hunter fluorescence, primary and confirmatory (AID 624330); assay type: functional
T7 sequence (Q9H0H5 whole entry): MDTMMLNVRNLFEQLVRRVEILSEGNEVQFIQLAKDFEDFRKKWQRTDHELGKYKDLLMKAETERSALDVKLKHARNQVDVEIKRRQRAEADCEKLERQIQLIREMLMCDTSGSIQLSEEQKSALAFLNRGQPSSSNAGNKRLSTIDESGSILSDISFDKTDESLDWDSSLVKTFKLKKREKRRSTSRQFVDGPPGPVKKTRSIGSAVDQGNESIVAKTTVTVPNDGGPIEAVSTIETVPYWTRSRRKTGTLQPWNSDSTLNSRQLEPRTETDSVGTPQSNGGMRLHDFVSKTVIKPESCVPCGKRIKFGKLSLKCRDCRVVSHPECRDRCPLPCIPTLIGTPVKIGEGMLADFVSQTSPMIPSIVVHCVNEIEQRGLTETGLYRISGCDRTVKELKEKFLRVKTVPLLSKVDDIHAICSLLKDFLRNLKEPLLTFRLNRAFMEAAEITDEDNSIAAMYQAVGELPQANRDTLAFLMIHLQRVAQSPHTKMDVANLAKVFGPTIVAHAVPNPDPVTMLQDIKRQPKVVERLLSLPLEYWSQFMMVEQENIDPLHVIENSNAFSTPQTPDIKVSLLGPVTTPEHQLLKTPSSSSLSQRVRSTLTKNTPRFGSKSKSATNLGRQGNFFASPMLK

[15] = molecular target: Phosphoethanolamine/phosphocholine phosphatase (Homo sapiens, UniProt Q8TCT1); experiment: SAR assay for compounds that inhibit PHOSPHO1. [Related pubchem assays (depositor defined):AID1545, AID1565, AID1574]
Phosphoethanolamine/phosphocholine phosphatase, sequence (Q8TCT1 whole entry): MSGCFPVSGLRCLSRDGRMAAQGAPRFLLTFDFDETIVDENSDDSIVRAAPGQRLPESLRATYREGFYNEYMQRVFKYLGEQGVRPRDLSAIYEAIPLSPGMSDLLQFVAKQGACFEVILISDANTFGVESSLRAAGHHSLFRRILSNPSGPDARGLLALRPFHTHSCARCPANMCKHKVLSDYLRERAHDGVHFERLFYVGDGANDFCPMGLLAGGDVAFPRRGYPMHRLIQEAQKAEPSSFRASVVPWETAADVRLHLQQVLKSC

[16] = molecular target: T2, Alkaline phosphatase, tissue-nonspecific isozyme; experiment: human TNAP enzyme inhibitors, SAR follow-up, biochemical, luminescent, dose response (AID 1056)
Beta Lactamase = Beta Lactamase (Pseudomonas aeruginosa, UniProt Q932Y6); experiment: beta-lactamase reporter inhibitor potency, dose response, artefact control for NOD2-RIPK2 interaction inhibitor project, BLA reporter cells, FRET fluorescence (AID 651552); assay type: functional, cell-based
Beta Lactamase, sequence (Q932Y6 whole entry): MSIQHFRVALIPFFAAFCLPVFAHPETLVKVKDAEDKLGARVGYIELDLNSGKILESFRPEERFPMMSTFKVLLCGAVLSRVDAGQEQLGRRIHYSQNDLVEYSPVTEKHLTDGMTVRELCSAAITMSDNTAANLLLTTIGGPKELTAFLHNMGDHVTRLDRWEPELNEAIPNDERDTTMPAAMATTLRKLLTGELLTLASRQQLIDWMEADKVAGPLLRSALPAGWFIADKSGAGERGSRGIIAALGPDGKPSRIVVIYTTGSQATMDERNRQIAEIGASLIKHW

[17] = molecular target: DNA dC->dU-editing enzyme APOBEC-3A (Homo sapiens, UniProt P31941); experiment: APOBEC3A DNA deaminase inhibitors, dose response, biochemical (AID 504722); assay type: functional
DNA dC->dU-editing enzyme APOBEC-3A, sequence (P31941 whole entry): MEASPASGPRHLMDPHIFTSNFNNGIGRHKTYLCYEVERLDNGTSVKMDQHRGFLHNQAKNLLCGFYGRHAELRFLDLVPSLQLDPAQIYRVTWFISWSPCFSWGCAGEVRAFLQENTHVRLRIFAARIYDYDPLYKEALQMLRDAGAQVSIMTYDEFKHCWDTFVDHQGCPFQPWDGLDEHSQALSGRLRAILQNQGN

[18] = molecular target: Mitochondrial peptide methionine sulfoxide reductase (Bos taurus, UniProt P54149); experiment: Absorbance-based biochemical high throughput dose response assay for activators of Methionine sulfoxide reductase A (MsrA).; assay type: functional
Mitochondrial peptide methionine sulfoxide reductase, sequence (P54149 whole entry): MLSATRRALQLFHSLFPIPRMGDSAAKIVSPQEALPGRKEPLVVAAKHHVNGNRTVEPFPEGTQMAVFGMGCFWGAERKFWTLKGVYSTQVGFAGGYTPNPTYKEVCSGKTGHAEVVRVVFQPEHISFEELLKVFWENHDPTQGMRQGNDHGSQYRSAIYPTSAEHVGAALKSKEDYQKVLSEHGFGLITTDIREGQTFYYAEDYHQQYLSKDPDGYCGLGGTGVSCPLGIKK

[19] = inhibitors of firefly luciferase expression or activity, dose response, H4 neuroglioma cells, luminescence (AID 1990); assay type: functional, cell-based
[20] = Luminescence Cell-Based Dose Response HTS to Identify Inhibitors of 5'UTR Stem-Loop Driven Prion Protein mRNA Translation in H4 Neuroglioblastoma Cells. [Related pubchem assays: 1827 (Project Summary), 1813 (Primary HTS)]; assay type: functional
BJ [21] = experiment: cytotoxicity toward BJ-TERT fibroblasts, dose response, cell-based, RAS-independent, luminescence (AID 1933); assay type: functional; settings: Homo sapiens
CAAX prenyl protease 2 = CAAX prenyl protease 2 (Saccharomyces cerevisiae S288c, UniProt Q03530); assay type: biochemical
CAAX prenyl protease 2, sequence (Q03530 whole entry): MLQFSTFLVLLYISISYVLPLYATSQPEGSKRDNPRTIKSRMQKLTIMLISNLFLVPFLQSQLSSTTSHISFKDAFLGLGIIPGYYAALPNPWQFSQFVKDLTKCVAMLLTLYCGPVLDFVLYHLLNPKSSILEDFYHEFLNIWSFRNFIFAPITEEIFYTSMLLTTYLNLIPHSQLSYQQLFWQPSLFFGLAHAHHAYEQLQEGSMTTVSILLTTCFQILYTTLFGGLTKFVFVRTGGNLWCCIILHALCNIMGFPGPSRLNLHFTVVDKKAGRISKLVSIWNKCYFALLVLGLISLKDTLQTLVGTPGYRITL

INS1 = experiment: beta cell apoptosis inhibitors, cytokine rescue, dose response, luminescence, retest (AID 449756); assay type: functional, cell-based; settings: Rattus norvegicus;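 note: cell death triggered by IL-1 beta plus TNF-alpha plus IFN-gamma mixture; protective hits raise ATP signal compared with cytokine alone wells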
[22] = cytotoxicity toward DRD oncogenic fibroblasts, dose response, cell-based, non-viral oncogenic, luminescence (AID 1934); assay type: functional; settings: Homo sapiens
[23] = C. albicans growth with fluconazole, confirmation, fluorescence, retest (AID 2467); assay type: functional, cell-based
BJ [24] = experiment: cells; assay type: functional, cell-based; settings: Homo sapiens
BJ [25] = experiment: cytotoxicity toward BJ-TERT-LT-ST fibroblasts, dose response, cell-based, RAS-independent, luminescence (AID 1935); assay type: functional; settings: Homo sapiens;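 note: BJ fibroblasts immortalized with TERT plus LT and ST oncogenes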
[26] = NIH-3T3 fibroblast cytotoxicity, dose response, cytotoxicity control, cell-based, fluorescence, Alamar Blue, secondary assay (AID 2327); assay type: functional;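 note: NIH-3T3 mouse fibroblasts cultured with fluconazole at 8 µg/mL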
[27] = inhibitors of SNCA 5'UTR-driven reporter translation, confirmation, H4 neuroglioma cells, luminescence (AID 1988); assay type: functional, cell-based

Cc1ccc(NC(S)=NNC(=O)c2c(Cl)c(C)nn2C)cc1
IC50 [1]: > 100 µM (inactive)
IC50 [2]: > 100 µM (inactive)
IC50 [3]: > 100 µM (inactive)

CC1(C(=O)NNC(=O)c2ccc(=O)oc2)CC1Br (stereo unspecified)
EC50 [4]: > 100 µM (inactive)
IC50 [5]: > 100 µM (inactive)
IC50 [6]: 11 µM (active)

CC1=C(C(=O)NCc2ccccc2)C(c2cc(Br)cc(Br)c2OC(C)C)NC(=O)N1 (stereo unspecified)
EC50 [7]: 4.22 µM (active)

O=c1c2ccccc2sn1-c1ccc(F)cc1
IC50 [8]: > 66 µM (inactive)
IC50 [9]: > 66 µM (inactive)
IC50 [10]: 12.4 µM (active)
IC50 [11]: 1.49 µM (active)
IC50 [12]: 5.1 µM (active)
IC50 (Phosphomannomutase 2): 18.1 µM (active)
CC50 [13]: 77.3 µM (active)
IC50 [14]: 39.3 µM (active)
IC50 [15]: 4.85 µM (inactive)
IC50 [16]: > 100 µM (inactive)
IC50 (Beta Lactamase): 29.5 µM (inactive)
IC50 [17]: > 100 µM (inactive)
EC50 [18]: 98.5 µM (inactive)

Cc1ccc(-c2cc(-c3ccccc3)cc(-c3ccccc3)[n+]2-c2ccccc2)cc1.[O-][Cl+3]([O-])([O-])[O-]
EC50 [19]: > 120 µM (not active)
EC50 [20]: > 120 µM (not active)
EC50 (BJ [21]): 4.34 µM (active)
AC50 (CAAX prenyl protease 2): 29.1 µM (active)
AC50 (INS1): 1.89 µM (active)
EC50 [22]: 6.7 µM (active)
EC50 [23]: 0.378 µM (active)
EC50 (BJ [24]): 7.64 µM (active)
EC50 (BJ [25]): 4.96 µM (active)
EC50 [26]: 43.8 µM (active)
EC50 [27]: 10.7 µM (active)
